Several values for one entry are separate records, joined by “and”; a condition that tells them apart may be missing. Equal entries are not always repeated.
Assays:
[1] = target: T1, HLA-DRB1*11:01 (Homo sapiens, UniProt P01903+P01911, A100R/A169T/A87E/I96F/K41T/L162R/M171V/P40S/Q125H/Q178H/Q39Y/Q99D/R42S/S66Y/T262R/V115G/W38E); assay type: binding; parameters: reference not given here; conditions: 24–72 h at 37°C
T1 construct: Purified HLA-DR heterodimers derived from the relevant EBV B-lymphoblastoid cell lines; endogenous in cells
T1 sequence (P01903 26-254, other chains not shown): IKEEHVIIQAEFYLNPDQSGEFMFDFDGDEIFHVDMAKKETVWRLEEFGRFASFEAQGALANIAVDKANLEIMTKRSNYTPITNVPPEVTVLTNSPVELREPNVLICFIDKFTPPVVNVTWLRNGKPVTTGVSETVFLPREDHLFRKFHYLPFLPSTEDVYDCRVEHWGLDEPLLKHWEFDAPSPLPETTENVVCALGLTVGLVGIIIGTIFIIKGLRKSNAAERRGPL

[2] = system: HLA-DRB1*04; assay type: binding, human; parameters: reference not given here; conditions: 24–72 h at 37°C
[3] = system: HLA class-II heterodimers (HLA DRB1*04, 07, 09, 11:01, 12:02, 15:01, 15:02); assay type: binding, human
[4] = system: HLA-DRB1*09; assay type: binding, human; parameters: reference not given here; conditions: 24–72 h at 37°C
[5] = target: HLA-DRB1*12:02 (Homo sapiens, UniProt P01903+P01911, A100R/A169T/D57E/D86V/F55L/H45Y/I96F/K41T/L162R/M171V/P40S/Q125H/Q178H/Q39Y/Q99D/R42G/S66L/T262R/V114A/V67L/W38E/Y59H/Y61H/Y89S); assay type: binding; parameters: reference not given here; conditions: 24–72 h at 37°C
[6] = system: PBMC from melioidosis patients and control donors; assay type: cell-based, human
[7] = system: PBMC from healthy, seropositive donors; assay type: cell-based, human
[8] = target: T2, HLA-DRB1*15:01 (Homo sapiens, UniProt P01903+P01911); assay type: binding; parameters: reference not given here; conditions: 24–72 h at 37°C
T2 construct: Purified HLA-DR heterodimers derived from the relevant EBV B-lymphoblastoid cell lines; endogenous in cells

[9] = system: HLA-DQB1*0602 and HLA-DQB1*0302; conditions: cited from earlier work
[10] = target: T3, HLA-DRB1*15:02 (Homo sapiens, UniProt P01903+P01911, V115G); assay type: binding; parameters: reference not given here; conditions: 24–72 h at 37°C
T3 construct: Purified HLA-DR heterodimers derived from the relevant EBV B-lymphoblastoid cell lines; endogenous in cells
T3 sequence (P01903 26-254, other chains not shown): as above

[11] = system: HLA-DRB1*07; assay type: binding, human; parameters: reference not given here; conditions: 24–72 h at 37°C

Sequence	HLA binding, relative HLA binding affinity [1]	HLA binding, relative HLA binding affinity [2]	HLA class-II binding across the panel (in words) [3]	HLA binding, relative HLA binding affinity [4]	HLA binding, relative HLA binding affinity [5]	IFNγ response, acute septicemic melioidosis compared with recovered individuals (Figure 3) [6]	% Responders [7]	Median SFC/10^6 PBMCs (IFN-g) [7]	HLA binding, relative HLA binding affinity [8]	Presentation through HLA-DQ [9]	HLA binding, relative HLA binding affinity [10]	HLA binding, relative HLA binding affinity [11]	IFNγ response compared between cohorts (Figure 2) [6]
KDFTFVCPTEIVEFAKLAKQ [BPSL2096_P6]	43	9	moderate to high affinity	18	25	lower during acute disease	82.4% and 82%	333	7	can be presented also through HLA-DQB1*0602 and HLA-DQB1*0302	222	0.3	
VVVATGYTDRIGSDKYNDRL [BPSL2522_P14]	>278	>145		>689	>136	lower during acute disease	100%	290	10		1 826	>336	lower in recovered patients than in seropositive healthy donors

— PMC5869189 (Frontiers in Immunology, 2018)
